Reference: patent publication US12084430B2, “Tricyclic urea compounds as JAK2 V617F inhibitors” (Incyte Corporation, priority 2022, dated 2024)

Legend:
[1] = tested on: pSTAT5 signaling in SET-2 cells in whole blood; test: pSTAT5 SET-2 whole blood MSD assay; type: cell-based; conditions: Homo sapiens, pSTAT5, 2 hour, read-out: SET2 WB IC50
Experimental: Example F. pSTAT5 SET-2 Whole Blood MSD Assay
SET-2 cells shipped from ABS, RPMI1640 medium, Fetal Bovine Serum from Gibco, Phospho-STAT5a,b Whole Cell Lysate Kit from Mesoscale, Retronectin (Recombinant Human Fibronectin Fragment) from TaKaRa, 96 well cell culture plate flat bottom from Corning, lysis buffer from Cell Signaling Technology, and sterile PBS from Gibco. Whole Blood from by BioIVT.
SET-2 cells were cultured in RPMI media with 20% FBS at 37° C. humidified incubator supplied with 5% CO2. On the day of the assay, 40 uL per well of diluted retronectin working solution was added to sterile 96-well clear flat bottom tissue culture plates (1:200 dilution of retronectin in sterile PBS) and incubated at 37 C for 1 hour. After 1 hour, the retronectin working solution was aspirated and SET-2 cells were seeded at 100,000/well in RPMI+20% FBS. Cells were incubated overnight at 37° C. and 5% CO2. The next day, the medium was removed and 40 μL of diluted compounds in serum-free RPMI and whole blood was added to the cells for a 2 hour incubation at 37° C. and 5% CO2. The compound starting concentration is 20 μM and 2.5 fold serial diluted down to 0.21 nM. The whole blood and compound mixture was then aspirated off using the BlueCat plate washer and washed 1× with PBS. Cells were lysed by adding 40 μL of 3× complete lysis buffer and shaken at room temperature for 45-60 minutes (complete lysis buffer consists of Cell Signaling Technology lysis buffer diluted to 3× and supplemented with Mesoscale's protease inhibitor, phosphatase I inhibitor, and phosphatase II inhibitor). The pSTAT5 MSD plates were blocked by adding 150 μL of Blocker A solution per well to the MSD plates and incubated at room temperature with shaking at 400 rpm for one hour or longer. After blocking, plates were washed 3× with 300 μL/well of IX Tris Wash Buffer. After lysis, added 25 μL per well of lysed sample was added to MSD plate and incubated with shaking at 4° C. wrapped in foil overnight. The next day, plates were washed again and 25 μL/well of diluted 1× Detection Antibody Solution, wrapped in foil, and incubated at room temperature with shaking at 400 rpm for 1 hour. Plates were then washed again and lastly, 150 μL/well of 1× Read Buffer T was added to all wells. Plates were analyzed on MSD Discovery within 5 minutes. […] Data analysis was performed in GraphPad Prism using a 4-parameter fit and data was reported as Average±SD.

[2] = tested on: STAT5 (Tyr694) phosphorylation in SET-2 cells; test: STAT5 (Tyr694) phosphorylation cell based assay; conditions: Homo sapiens, pSTAT5, 2 hours, read-out: SET2 IC50
Experimental: Example E. STAT5 (Tyr694) Phosphorylation Cell Based Assay
SET-2 cells was purchased from DSMZ (Germany). RPMI1640 medium, Fetal Bovine Serum and 384-white sold flat-bottom small volume plate were purchased from Thermo Fisher Scientific (Waltham, MA). Phospho-STAT5 (Tyr694) HTRF kit was purchased from Perkin Elmer (Waltham, MA).
SET-2 cells were cultured in RPMI media with 20% FBS at 37° C. in humidified incubator supplied with 5% CO2. On the day of assay, the cells were centrifuged to remove the culture media and resuspended with prewarmed RPMI with 10% FBS. Testing compounds were prepared by serial dilution in DMSO and 50 nL/well test compounds were transferred to the 384 white low volume cell culture plate (Greiner Bio-one) by ECHO liquid handler (Labcyte). The cells were then dispensed with Multidrop (Thermo Fisher, Waltham, MA) at 10 μL/well (7×10^6 cells/mL) with 0.5% DMSO in the final assay. After the treated cells were incubated for 2 hours at 37° C./5% CO2 incubator, 4 μL/well supplemented lysis buffer (100× blocking buffer diluted 25 fold in 4× lysis buffer, Perkin Elmer) were added and incubated at room temperature for 90 min on orbital shaker at 600 rpm. Phospho-STAT5 Cryptate antibody and Phospho-STAT5 d2 antibody (1:1 vol/vol) were premixed and diluted 20 fold with in the detection buffer (Perkin Elmer). 4 μL of the premixed antibody solution were added to each well followed with 24 hours incubation at room temperature on orbital shaker at 600 rpm. The product activity was determined by measuring the fluorescence at 620 nm and 665 nm on Pherastar microplate reader (BMG Labtech). A ratio is calculated (665/620) for each well. Wells with DMSO only served as the positive controls and wells containing high concentration of control compound were used as negative controls. IC50 determination was performed by fitting the curve of percent control activity versus the log of the compound concentration using the GraphPad Prism 7.0 software.

[3] = In vivo pharmacokinetics, rat; design: species or system Sprague Dawley rats; conditions: male, Sprague Dawley, plasma, oral 3.0 mg/kg
Experimental: Example H. In Vivo Pharmacokinetics
Test compounds were administered to male Sprague Dawley rats or male and female Cynomolgus monkeys intravenously or via oral gavage. For intravenous (IV) dosing, test compounds were dosed at 1 mg/kg using a formulation of 10% dimethylacetamide (DMAC), 10% propylene glycol (PG) in acidified saline via IV bolus for rat or 10 min IV infusion for monkey. For oral (PO) dosing, test compounds were dosed at 3.0 mg/kg using 5% DMAC in 0.5% methylcellulose in citrate buffer (pH˜2.5). Blood samples were collected at predose and various time points up to 24 hours postdose. All blood samples were collected using EDTA as the anticoagulant and centrifuged to obtain plasma samples. The plasma concentrations of test compounds were determined by LC-MS/MS methods. The measured plasma concentrations were used to calculate PK parameters by standard noncompartmental methods using Phoenix® WinNonlin software program (version 8.0, Pharsight Corporation) or similar software. In rats and monkeys, cassette dosing of test compounds were conducted to obtain preliminary PK parameters. In vivo pharmacokinetic experiments with male beagle dogs may be performed under the conditions described above.

Row | Compound | IC50 [1] | IC50 [2] | AUC [3]
1 | COc1nn(C)cc1-c1[nH]c2ncc3c(c2c1-c1ccc2c(cnn2C)c1)n(C1CCOCC1)c(=O)n3C [A, reference compound] | > 7500 nM | > 800 nM | –
2 | [2H]C([2H])([2H])n1ncc2cc(-c3c(-c4cn(C)nc4OC)[nH]c4ncc5c(c34)n(C3CCOCC3)c(=O)n5C)ccc21 [B, reference compound] | > 7500 nM | > 800 nM | –
3 | COc1nn(C)cc1-c1[nH]c2ncc3c(c2c1-c1ccc2c(cnn2C)c1)n([C@H]1CC[C@@H](CC#N)CC1)c(=O)n3C [E, reference compound] | – | 300 to 800 nM | –
4 | COC(=O)N[C@@H]1CC[C@@H](n2c(=O)n(C)c3cnc4[nH]c(-c5cn(C)nc5OC)c(-c5ccc(F)cc5)c4c32)C1 [Example 1, Methyl ((1R,3R)-3-(8-(4-fluorophenyl)-7-(3-methoxy-1-methyl-1H-pyrazol-4-yl)-3-methyl-2-oxo-3,6-dihydroimidazo[4,5-d]pyrrolo[2,3-b]pyridin-1(2H)-yl)cyclopentyl)carbamate] | 2500 to 5000 nM | > 800 nM | > 1.5 µM·h
5 | COC(=O)N[C@@H]1CC[C@@H](n2c(=O)n(C)c3cnc4[nH]c(-c5cn(C)nc5OC)c(-c5ccccc5)c4c32)C1 [Example 2, Methyl ((1R,3R)-3-(7-(3-methoxy-1-methyl-1H-pyrazol-4-yl)-3-methyl-2-oxo-8-phenyl-3,6-dihydroimidazo[4,5-d]pyrrolo[2,3-b]pyridin-1(2H)-yl)cyclopentyl)carbamate] | 2500 to 5000 nM | 300 to 800 nM | > 1.5 µM·h
6 | [2H]C([2H])([2H])n1cc(-c2[nH]c3ncc4c(c3c2-c2ccc3c(c2)COC3(C)C)n([C@@H]2CC[C@@H](NC(=O)OC)C2)c(=O)n4C)c(F)n1 [Example 11, Methyl ((1R,3R)-3-(8-(1,1-dimethyl-1,3-dihydroisobenzofuran-5-yl)-7-(3-fluoro-1-(methyl-d3)-1H-pyrazol-4-yl)-3-methyl-2-oxo-3,6-dihydroimidazo[4,5-d]pyrrolo[2,3-b]pyridin-1(2H)-yl)cyclopentyl)carbamate] | ≤ 2500 nM | ≤ 300 nM | –
7 | [2H]C([2H])([2H])n1c(=O)n([C@@H]2CC[C@@H](NC(=O)OC)C2)c2c3c(-c4ccc5c(c4)COC5(C)C)c(-c4cn(CC(F)F)nc4F)[nH]c3ncc21 [Example 12, Methyl ((1R,3R)-3-(7-(1-(2,2-difluoroethyl)-3-fluoro-1H-pyrazol-4-yl)-8-(1,1-dimethyl-1,3-dihydroisobenzofuran-5-yl)-3-(methyl-d3)-2-oxo-3,6-dihydroimidazo[4,5-d]pyrrolo[2,3-b]pyridin-1(2H)-yl)cyclopentyl)carbamate] | ≤ 2500 nM | ≤ 300 nM | –
8 | [2H]C([2H])([2H])n1cc(-c2[nH]c3ncc4c(c3c2-c2ccc3c(cnn3C(C)C)c2)n([C@@H]2CC[C@@H](NC(=O)OC)C2)c(=O)n4C)c(F)n1 [Example 16, Methyl ((1R,3R)-3-(7-(3-fluoro-1-(methyl-d3)-1H-pyrazol-4-yl)-8-(1-isopropyl-1H-indazol-5-yl)-3-methyl-2-oxo-3,6-dihydroimidazo[4,5-d]pyrrolo[2,3-b]pyridin-1(2H)-yl)cyclopentyl)carbamate] | ≤ 2500 nM | ≤ 300 nM | –
9 | [2H]C([2H])([2H])n1cc(-c2[nH]c3ncc4c(c3c2-c2cc(F)c3c(cnn3C([2H])([2H])[2H])c2)n([C@@H]2CC[C@@H](NC(=O)OC)C2)c(=O)n4C([2H])([2H])[2H])c(F)n1 [Example 17, Methyl ((1R,3R)-3-(8-(7-fluoro-1-(methyl-d3)-1H-indazol-5-yl)-7-(3-fluoro-1-(methyl-d3)-1H-pyrazol-4-yl)-3-(methyl-d3)-2-oxo-3,6-dihydroimidazo[4,5-d]pyrrolo[2,3-b]pyridin-1(2H)-yl)cyclopentyl)carbamate] | ≤ 2500 nM | ≤ 300 nM | –
10 | [2H]C([2H])([2H])n1cc(-c2[nH]c3ncc4c(c3c2-c2ccc3c(cnn3CC(F)F)c2)n([C@@H]2CC[C@@H](NC(=O)OC)C2)c(=O)n4C)c(F)n1 [Example 18, Methyl ((1R,3R)-3-(8-(1-(2,2-difluoroethyl)-1H-indazol-5-yl)-7-(3-fluoro-1-(methyl-d3)-1H-pyrazol-4-yl)-3-methyl-2-oxo-3,6-dihydroimidazo[4,5-d]pyrrolo[2,3-b]pyridin-1(2H)-yl)cyclopentyl)carbamate] | ≤ 2500 nM | ≤ 300 nM | –
11 | [2H]C([2H])([2H])n1c(=O)n([C@@H]2CC[C@@H](NC(=O)OC)C2)c2c3c(-c4ccc5c(c4)COC5(C)C)c(-c4cn(C([2H])([2H])C([2H])([2H])[2H])nc4F)[nH]c3ncc21 [Example 19, Methyl ((1R,3R)-3-(8-(1,1-dimethyl-1,3-dihydroisobenzofuran-5-yl)-7-(1-(ethyl-d5)-3-fluoro-1H-pyrazol-4-yl)-3-(methyl-d3)-2-oxo-3,6-dihydroimidazo[4,5-d]pyrrolo[2,3-b]pyridin-1(2H)-yl)cyclopentyl)carbamate] | ≤ 2500 nM | ≤ 300 nM | –
12 | [2H]C([2H])([2H])n1c(=O)n([C@@H]2CC[C@@H](NC(=O)OC)C2)c2c3c(-c4ccc5c(c4)COC5(C)C)c(-c4cn(CC)nc4F)[nH]c3ncc21 [Example 20, Methyl ((1R,3R)-3-(8-(1,1-dimethyl-1,3-dihydroisobenzofuran-5-yl)-7-(1-ethyl-3-fluoro-1H-pyrazol-4-yl)-3-(methyl-d3)-2-oxo-3,6-dihydroimidazo[4,5-d]pyrrolo[2,3-b]pyridin-1(2H)-yl)cyclopentyl)carbamate] | ≤ 2500 nM | ≤ 300 nM | –
13 | [2H]C([2H])([2H])n1ncc2cc(-c3c(-c4cn(C([2H])(C([2H])([2H])[2H])C([2H])([2H])[2H])nc4F)[nH]c4ncc5c(c34)n([C@@H]3CC[C@@H](NC(=O)OC)C3)c(=O)n5C([2H])([2H])[2H])ccc21 [Example 21, Methyl ((1R,3R)-3-(7-(3-fluoro-1-(propan-2-yl-d7)-1H-pyrazol-4-yl)-3-(methyl-d3)-8-(1-(methyl-d3)-1H-indazol-5-yl)-2-oxo-3,6-dihydroimidazo[4,5-d]pyrrolo[2,3-b]pyridin-1(2H)-yl)cyclopentyl)carbamate] | ≤ 2500 nM | ≤ 300 nM | –
